Data: patent US20060281787A1, “Bisindolyl maleimides useful for treating prostate cancer and akt-mediated diseases” (priority 2003, published 2006)

How the values were obtained:
[1] = system: forkhead transcription factor AFX; assay: Phosphorylation of AFX (western blot, AKT pathway readout); type: cell-based; settings: readout of AKT pathway activity
Procedure: (§1) Protein lysates were prepared by incubation in RIPA Buffer (50 mM Tris-HCl, 150 mM NaCl, 1 mM EDTA, 1% NP40, 0.25% Sodium deoxycholate, 1 mM sodium fluoride, 1 mM sodium orthovanadate and Complete™ protease inhibitors (Roche Cat# 10019600) for one hour with rotation. The lysate was then centrifuged (10 minutes@ 10,000 rpm), supernatant harvested and protein concentrations were determined using the Bio-Rad DC Protein Assay (cat# 500-0122). Proteins were separated by SDS-PAGE using 4-20% tris-glycine gels (Invitrogen, cat# EC6028) and transferred to Hyper™-bond PVDF membrane (Amersham, cart# rpn303F). All primary antibodies were incubated overnight at 4° C. in 5% milk/1×PBS (Gibco, cat# 70011-044) solution. Horseradish peroxidase (HRP) linked secondary antibodies (Santa Cruz, cat# sc-2055, sc-2054) were incubated for a minimum of two hours prior to detection. Specific signal was determined by the Lumi-Imager™ and Lumi-Analyst software to define changes in protein expression and phosphorylation. […]

4EBP1 = assay: Phosphorylation of 4EBP1 (western blot, AKT pathway readout); type: cell-based; settings: readout of AKT pathway activity
Procedure: as §1

[2] = system: GSK3β ser9 phosphorylation; assay: GSK3β ser9 phosphorylation in xenograft tissues of treated mice; type: in vivo; settings: human tumor xenograft-bearing mice
Procedure: as §1
Approximately 5×10^6 tumor cells are implanted subcutaneously into the flank of athymic nude mice (Harlan, Indianapolis, Ind.). […] Body weight and tumor size are monitored weekly or twice weekly.

[3] = system: U87MG glioblastoma xenografts; assay: In vivo tumor inhibition, U87MG xenografts; set-up: species or system athymic nude mice
Description: (§2) Approximately 5×10^6 tumor cells are implanted subcutaneously into the flank of athymic nude mice (Harlan, Indianapolis, Ind.). Treatment of tumors begins when the tumors reach 100 mm^3 and continues for 21 consecutive days twice per day PO. Body weight and tumor size are monitored weekly or twice weekly.

[4] = system: human cancer cell lines derived from lung; assay: Apoptosis assay (Cell Death Detection ELISA), lung; type: cell-based
Description: (§3) Apoptosis assays were executed using the Cell Death Detection ELISAPIUS (Roche, 1774425) assay kit strictly following the enclosed protocol.

[5] = system: human cancer cell lines derived from colon; assay: Apoptosis assay (Cell Death Detection ELISA), colon; type: cell-based
Procedure: Both HCT116 colon carcinoma (cat#CCL-247) and U87MG glioblastoma (cat#HTB-14) cell lines were obtained from the American Type Culture Collection (ATCC). The standard growth media differed for each cell line but all were grown in 10% heat-inactivated FBS (Invitrogen cat# 10082-147), 37° C., 5% CO2 atmosphere and in a humidified chamber. Cell passage was completed one to two times per week using 0.25% trypsin/1 mM EDTA (Invitrogen, cat# 25200-056) solution maintaining cells in log phase growth. U87MG cells were cultured in DMEM media (Invitrogen cat# 11965-092), 1 mM non-essential amino acids (NEAA), and 0.1 mM Sodium Pyruvate. HCT116 cells were grown in McCoy's 5A Modified media (Invitrogen, cat# 16600-082), 0.15% sodium bicarbonate, 0.1 mM HEPES, 25 mM D-glucose and 0.1 mM sodium Pyruvate.
as §3

[6] = system: HCT116 colon cancer xenografts; assay: In vivo tumor inhibition, HCT116 xenografts; set-up: species or system athymic nude mice
Description: as §2

ribosomal protein S6 = assay: Phosphorylation of ribosomal protein S6 (western blot, AKT pathway readout); type: cell-based; settings: readout of AKT pathway activity
Procedure: as §1

recombinant PDK-1 = target: T1, recombinant PDK-1 (Homo sapiens, UniProt O15530); assay: PDK-1 kinase activity assay (PDK-tide phosphorylation, phosphocellulose filter plates); type: biochemical; settings: at Km for ATP and PDKtide saturation; read-out: inhibits PDK-1, EC50
T1 construct: purchased UBI
T1 sequence (O15530 1-556): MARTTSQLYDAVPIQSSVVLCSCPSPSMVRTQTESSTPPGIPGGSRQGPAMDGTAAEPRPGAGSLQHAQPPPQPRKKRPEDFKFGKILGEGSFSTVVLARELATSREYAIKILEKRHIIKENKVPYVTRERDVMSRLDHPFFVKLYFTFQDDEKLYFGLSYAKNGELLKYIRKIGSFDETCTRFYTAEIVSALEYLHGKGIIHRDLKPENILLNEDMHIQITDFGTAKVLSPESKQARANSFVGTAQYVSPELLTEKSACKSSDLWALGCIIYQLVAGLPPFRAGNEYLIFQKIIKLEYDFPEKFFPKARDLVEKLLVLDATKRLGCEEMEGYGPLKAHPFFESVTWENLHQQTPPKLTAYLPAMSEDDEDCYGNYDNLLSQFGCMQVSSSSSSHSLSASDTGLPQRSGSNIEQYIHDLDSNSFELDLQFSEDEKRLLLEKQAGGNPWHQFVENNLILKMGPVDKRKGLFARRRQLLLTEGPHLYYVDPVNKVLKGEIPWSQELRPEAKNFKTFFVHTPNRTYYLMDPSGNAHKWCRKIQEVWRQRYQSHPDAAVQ
Procedure: (§4) The assay described measures the phosphorylation of the PDK1 consensus phosphorylation site PDK-tide peptide ([…]; cat # 14452, lot 23876U) by recombinant PDK-1 (UBI) at Km for ATP and PDKtide saturation using phosphocellulose membrane filter plates. Phosphorylation of the p70S6 kinase substrate by recombinant p70S6 kinase is also measured similarly.

[7] = system: human cancer cell lines from non-Hodgkin's lymphoma; assay: Apoptosis assay (Cell Death Detection ELISA), non-Hodgkin's lymphoma; type: cell-based
Description: as §3

GSK3β = assay: Phosphorylation of GSK3β (western blot, AKT pathway readout); type: cell-based; settings: readout of AKT pathway activity
Procedure: as §1

[8] = system: human cancer cell lines derived from prostate (both androgen-dependent and independent cell lines); assay: Apoptosis assay (Cell Death Detection ELISA), prostate; type: cell-based
Description: as §3

recombinant p70S6 kinase = recombinant p70S6 kinase (Homo sapiens, UniProt P23443); assay: p70S6 kinase activity assay; type: biochemical; settings: read-out: inhibits p70S6kinase, EC50
Procedure: as §4

[9] = system: xenografts from the androgen-independent prostate carcinoma cell line PC3; assay: In vivo tumor inhibition, PC3 xenografts; set-up: species or system athymic nude mice
Description: as §2

Chain of recombinant p70S6 kinase (P23443 whole entry): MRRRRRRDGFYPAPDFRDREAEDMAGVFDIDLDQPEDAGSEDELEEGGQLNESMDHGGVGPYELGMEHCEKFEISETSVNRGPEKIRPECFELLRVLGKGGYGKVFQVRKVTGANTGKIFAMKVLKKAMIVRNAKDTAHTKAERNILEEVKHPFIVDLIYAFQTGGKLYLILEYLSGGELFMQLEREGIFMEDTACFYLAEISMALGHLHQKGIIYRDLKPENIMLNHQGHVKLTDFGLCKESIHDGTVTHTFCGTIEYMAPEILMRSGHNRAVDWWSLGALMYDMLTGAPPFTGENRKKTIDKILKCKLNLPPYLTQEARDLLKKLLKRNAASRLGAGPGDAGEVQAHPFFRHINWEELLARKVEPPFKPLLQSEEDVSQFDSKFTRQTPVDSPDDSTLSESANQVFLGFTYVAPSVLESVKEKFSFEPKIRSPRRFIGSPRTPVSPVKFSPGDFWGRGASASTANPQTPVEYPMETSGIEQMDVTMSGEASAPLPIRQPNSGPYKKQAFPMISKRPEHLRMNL

EC50 (recombinant PDK-1): 370 nM
EC50 (recombinant p70S6 kinase): < 500 nM
Structure (SMILES): Cn1cc(C2=C(c3cn(C4CCNCC4)c4ccccc34)C(=O)NC2=O)c2ccccc21 [Compound 1]
phosphorylation of the forkhead transcription factor AFX [1]: suppresses phosphorylation
phosphorylation of 4EBP1 (4EBP1): suppresses phosphorylation
GSK3β ser9 phosphorylation in xenograft tissues ([2]; including an androgen-independent prostate carcinoma cell line): suppresses GSK3β ser9 phosphorylation
duration of suppression of GSK3β ser9 phosphorylation post dosing ([2]; post dosing): up to 8 hours
anti-tumor efficacy [3]: has been demonstrated
induction of apoptosis [4]: induces apoptosis
induction of apoptosis [5]: induces apoptosis
anti-tumor efficacy [6]: has been demonstrated
phosphorylation of ribosomal protein S6 (ribosomal protein S6): suppresses phosphorylation
induction of apoptosis [7]: induces apoptosis
phosphorylation of GSK3β (GSK3β): suppresses phosphorylation
induction of apoptosis [8]: induces apoptosis
anti-tumor efficacy [9]: has been demonstrated
